Numbers after ± are expanded uncertainties.
Conditions: Liquid

| Structure (SMILES) | vapor or sublimation pressure (313.15 K) [kPa] | vapor or sublimation pressure (323.15 K) [kPa] | vapor or sublimation pressure (333.15 K) [kPa] | vapor or sublimation pressure (343.15 K) [kPa] | vapor or sublimation pressure (353.15 K) [kPa] | vapor or sublimation pressure (363.15 K) [kPa] |
| --- | --- | --- | --- | --- | --- | --- |
| CC(F)(F)F [1,1,1-trifluoroethane] | 1831 ± 14 | 2302 ± 18 | 2874 ± 22 | 3553 ± 28 | – | – |
| CCCC [butane] | 377 ± 3 | 495 ± 4 | 639 ± 5 | 810 ± 6 | 1012 ± 8 | 1250 ± 10 |
